According to publication PMC5464773 (eLife, 2017):
Where two headings read alike, the source gives them in different places.

What was measured:
[1] = molecular target: T1, Bcl-2 (Homo sapiens, UniProt P10415); assay: Competition fluorescence polarization (anisotropy) with fluoresceinated BIM; assay type: binding
T1 construct: c-myc
Method: Plates were mixed at 23°C for 3 hr. Plates were read again at 24 to check equilibration. Experiments were done in at least triplicate.

[2] = tested on: BCR-ABL-expressing B-lineage acute lymphoblastic leukemia cells dependent on Bfl-1; assay: BH3 profiling, mitochondrial depolarization (JC-1) in permeabilized cells; assay type: cell-based; design: key to Bottom (best-fit value) / Top (best-fit value): % depolarization, normalized to DMSO (0) and FCCP (100) controls; conditions: for mitochondrial depolarization pattern in BH3 profiling: 100 nM peptide, four cell lines engineered to depend on Bcl-2, Bcl-xL, Mcl-1 or Bfl-1, JC-1; for HillSlope (best-fit value) / Bottom (best-fit value) / Top (best-fit value) / LogEC50 (best-fit value): BH3 profiling fits Bfl-1, sigmoidal dose-response (variable slope); for Bottom (best-fit value): constraint Bottom < 5; for Top (best-fit value): constraint Top > 78; for LogEC50 (best-fit value): x = Log [Peptide] M, 55-56 Y values analyzed
Method: (§1) Cell line identities were confirmed by STR profiling.
Peptides were titrated by serial dilution in MEB buffer (150 mM Mannitol, 10 mM HEPES-KOH pH 7.5, 50 mM KCl, 0.02 mM EGTA, 0.02 mM EDTA, 0.1% BSA and 5 mM Succinate) containing 20 μg/mL oligomycin, 50 μg/mL digitonin, 2 μM JC-1 and 10 mM 2-mercaptoethanol in 384-well plates. Controls for no depolarization (1% DMSO) and complete depolarization with the mitochondrial oxidative phosphorylation uncoupler FCCP (20 μM) were included for data normalization. […] 15 μL of cell suspension was added to each well containing 15 μL of treatment solution. […] To produce percent depolarization, the area under the resultant curve was calculated and normalized to the assay controls. Peptide titration curves were fit to sigmoidal dose-response curves using Graphpad PRISM seven to obtain EC50 values.

[3] = tested on: BCR-ABL-expressing B-lineage acute lymphoblastic leukemia cells dependent on Bfl-1; conditions: for HillSlope (best-fit value) / Bottom (best-fit value) / Top (best-fit value) / LogEC50 (best-fit value): iBH3 fits Bfl-1, sigmoidal dose-response (variable slope); for Bottom (best-fit value) / Top (best-fit value): fit of 3 replicates; for cytochrome c release pattern in iBH3: low concentrations, highly primed cells of known anti-apoptotic protein dependency; for LogEC50 (best-fit value): log of EC50, x axis Log [Peptide M]
Method: (§2) As an additional test for on-pathway activity, we measured cytochrome c release in the same engineered cell lines in response to peptide treatment, using iBH3 profiling ([Ryan et al., 2016]).
(§3) The creation and characterization of the BCR-ABL-expressing B-lineage acute lymphoblastic leukemia suspension cell lines with engineered dependencies on human versions of anti-apoptotic genes is detailed in [Koss et al. (2016)]). Cells were grown in RPMI (Life Technologies, Carlsbad, CA) with 10% fetal bovine serum, 2 mM L-glutamine, 10 mL/L 100x Pen/Strep (Life Technologies # 15140122), 25 mM HEPES and 10 mL/L 100x NEAA (Life Technologies, 11140050). The adherent cell lines PC-3 (RRID: CVCL_0035) and SF295 (RRID: CVCL_1690) are from the NCI60 panel ([Lorenzi et al., 2009]) and were grown in RPMI (Life Technologies) with 10% fetal bovine serum, 2 mM L-glutamine and 10 mL/L 100x Pen/Strep (Life Technologies # 15140122 ). Cell line identities were confirmed by STR profiling. The Lookout Mycoplasma PCR detection kit (Sigma) was used to detect mycoplasma infection.
(§4) Cells were suspended in MEB buffer (150 mM mannitol, 50 mM KCl, 10 mM HEPES, 5 mM succinic acid, 20 μM EGTA, 20 μM EDTA, 0.1% BSA, final pH 7.4) at 0.5*10^6 cells/mL (adherent lines) or 2 *10^6 cells/mL (suspension lines). Cell suspension was added to a 384 non-binding well plate (10 μL/well) containing peptides at 2X final concentration in MEB with 20 μg/mL digitonin. Plates were incubated at 25°C for 1 hr. To terminate exposure, 10 μL of 4% formaldehyde in PBS was added to each well, plates were incubated for 10 min before addition of 10 μL N2 buffer (1.7M Tris, 1.25M glycine, pH 9.1) for 5 min. 10 μL of staining buffer (2% Tween20, 10% BSA, PBS) containing 10 μg/mL Hoechst 33342 and 1.25 μg/mL anti-cytochrome c Alexa647 conjugate (BioLegend clone 6H2.B4) was added to each well before sealing the plate and shaking overnight. The median fluorescence of the cytochrome c channel of Hoechst positive singlets was recorded by an IntelliCyt iQue Screener Plus. Cytochrome c release was determined by normalizing the median fluorescence intensity (MFI) data to positive control wells (Alamethicin) and negative control wells (DMSO) as follows: Cytochromecrelease=1−(MFIsample−MFIAlamethicin)/(MFIDMSO−MFIAlamethicin)

[4] = tested on: BCR-ABL-expressing B-lineage acute lymphoblastic leukemia cells dependent on Mcl-1; conditions: iBH3 fits Mcl-1, sigmoidal dose-response (variable slope); for Bottom (best-fit value) / Top (best-fit value): fit of 3 replicates; for LogEC50 (best-fit value): log of EC50, x axis Log [Peptide M]
Method: as §2, §3, §4

[5] = tested on: BCR-ABL-expressing B-lineage acute lymphoblastic leukemia cells dependent on Bcl-2; assay: iBH3 profiling, cytochrome c release; assay type: cell-based; conditions: iBH3 fits Bcl-2, sigmoidal dose-response (variable slope); for LogEC50 (best-fit value): log of EC50, x axis Log [Peptide M]; for Bottom (best-fit value) / Top (best-fit value): fit of 3 replicates
Method: as §2, §3, §4

[6] = tested on: BCR-ABL-expressing B-lineage acute lymphoblastic leukemia cells dependent on Bcl-xL; assay: iBH3 profiling, cytochrome c release; assay type: cell-based; conditions: iBH3 fits Bcl-xL, sigmoidal dose-response (variable slope); for LogEC50 (best-fit value): log of EC50, x axis Log [Peptide M]; for Bottom (best-fit value) / Top (best-fit value): fit of 3 replicates
Method: as §2, §3, §4

[7] = tested on: PC-3 cells; assay: iBH3, cytochrome c release in unprimed cells (BAK/BAX activator function); assay type: cell-based; conditions: for peptide concentration leading to cytochrome c release in unprimed cells: PC-3, unprimed, iBH3, 25°C, 1 hr; for LogEC50 (best-fit value) / HillSlope (best-fit value) / Bottom (best-fit value) / Top (best-fit value): iBH3 fit PC-3, sigmoidal dose-response (variable slope); for LogEC50 (best-fit value): log of EC50, x axis Log [Peptide M]; for Bottom (best-fit value) / Top (best-fit value): fit of 4 replicates
Method: (§5) To test the possibility that FS1, FS2 or FS3 may directly activate BAK and BAX, we measured cytochrome c release in two ‘unprimed’ cell lines (PC-3 and SF295). Unprimed cells require BAK/BAX activators to release cytochrome c ([Certo et al., 2006]).
as §1
(§6) Plates were incubated at 25°C for 1 hr.

[8] = tested on: SF295 cells; assay type: cell-based; conditions: for peptide concentration leading to cytochrome c release in unprimed cells: SF295, unprimed, iBH3, 25°C, 1 hr; for Bottom (best-fit value) / HillSlope (best-fit value) / Top (best-fit value) / LogEC50 (best-fit value): SF295 cells, iBH3 fit, sigmoidal dose-response (variable slope); for LogEC50 (best-fit value): log of peptide concentration in M
Method: as §5, §1, §6

[9] = competition FP source data, mean of three replicates, values above 5 μM are reported as > 5 μM in the figures, read-out: mean Ki (M) Bcl-2
[10] = competition FP source data, replicate 1
[11] = competition FP source data, replicate 2
[12] = competition FP source data, replicate 3

T1 sequence (P10415 whole entry): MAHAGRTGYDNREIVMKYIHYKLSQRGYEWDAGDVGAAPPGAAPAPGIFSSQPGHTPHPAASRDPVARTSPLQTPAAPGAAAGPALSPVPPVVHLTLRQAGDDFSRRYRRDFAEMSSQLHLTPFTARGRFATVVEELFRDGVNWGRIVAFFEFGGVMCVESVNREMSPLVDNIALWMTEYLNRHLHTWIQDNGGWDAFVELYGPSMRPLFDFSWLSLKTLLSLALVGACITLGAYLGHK

Row | Substance | Ki [1, 9] [M] | Ki (M) Bcl-2 [1, 10] [M] | Ki (M) Bcl-2 [1, 11] [M] | Ki (M) Bcl-2 [1, 12] [M] | mitochondrial depolarization pattern in BH3 profiling [2] | HillSlope (best-fit value) [2] | Bottom (best-fit value) [2] | Top (best-fit value) [2] | LogEC50 (best-fit value) [2] | HillSlope (best-fit value) [3] | Bottom (best-fit value) [3] | Top (best-fit value) [3] | cytochrome c release pattern in iBH3 [3] | HillSlope (best-fit value) [4] | Bottom (best-fit value) [4] | Top (best-fit value) [4] | LogEC50 (best-fit value) [5] | HillSlope (best-fit value) [5] | Bottom (best-fit value) [5] | Top (best-fit value) [5] | also measured
1 | Ac-QWIREIAAGLRRFADILNAQVER-NH2 [FS3] | 2.06e-06 | 1.85e-06 | 2.41e-06 | 1.93e-06 | promoted depolarization only in Bfl-1 dependent cells | 0.653 | 0.004086 | 83.65 | -8.381 | 0.832 | ~ -46.09 | 0.9862 | selectively induced cytochrome c release only in Bfl-1 dependent cell lines | 4.529 | 0.1359 | 0.9781 | -5.822 | 2.312 | 0.1754 | 0.986 | specificity in BH3 profiling ([2]; four engineered cell lines, FS3 statement holds for JC-1 BH3 profiling and iBH3): significant cross reactivity at 30 μM; LogEC50 (best-fit value) [6]: -5.617; HillSlope (best-fit value) [6]: 1.589; Bottom (best-fit value) [6]: 0.1375; Top (best-fit value) [6]: 0.9805; peptide concentration leading to cytochrome c release in unprimed cells [7]: 30 to 100 µM; LogEC50 (best-fit value) [7]: -4.638; HillSlope (best-fit value) [7]: 2.225; Bottom (best-fit value) [7]: 0.07242; Top (best-fit value) [7]: 1.062; peptide concentration leading to cytochrome c release in unprimed cells [8]: 30 to 100 µM; Bottom (best-fit value) [8]: 0.0773; HillSlope (best-fit value) [8]: 2.539; Top (best-fit value) [8]: 1.042; LogEC50 (best-fit value) [8]: -4.873
2 | Ac-QWVREIAAGLRLAADNVNAQLER-NH2 [FS1] | 5.31e-06 | 8.37e-06 | 4.66e-06 | 2.9e-06 | promoted depolarization only in Bfl-1 dependent cells | 0.8486 | 1.325 | 81.21 | -7.974 | 2.245 | 0.8808 | 0.9982 | selectively induced cytochrome c release only in Bfl-1 dependent cell lines | 1.721 | 0.09874 | 0.9023 | -3.946 | 0.814 | 0.1541 | 1.46 | Ki ([1]; competition FP, 50 nM c-myc-tagged receptor + 25 nM fluoresceinated BIM, Tris pH 7.8, 23°C, 3 hr, mean ± SD of three replicates, read-out: Ki (nM) Bcl-2): > 5e-06 M; LogEC50 (best-fit value) [3]: -6.521; LogEC50 (best-fit value) [4]: -4.595; LogEC50 (best-fit value) [6]: ~ -4.446; HillSlope (best-fit value) [6]: ~ 9.069; Bottom (best-fit value) [6]: 0.1572; Top (best-fit value) [6]: 0.461; peptide concentration leading to cytochrome c release in unprimed cells [7]: > 100 µM; LogEC50 (best-fit value) [7]: ~ -3.754; HillSlope (best-fit value) [7]: ~ -10.78; Bottom (best-fit value) [7]: ~ -63.64; Top (best-fit value) [7]: 0.1; peptide concentration leading to cytochrome c release in unprimed cells [8]: > 100 µM; Bottom (best-fit value) [8]: ~ -0.1825; HillSlope (best-fit value) [8]: ~ -14.56; Top (best-fit value) [8]: 0.01448; LogEC50 (best-fit value) [8]: ~ -4.046
3 | Ac-QWVREIAAGLRRAADDVNAQVER-NH2 [FS2] | 2.41e-06 | 2.55e-06 | 2.86e-06 | 1.82e-06 | promoted depolarization only in Bfl-1 dependent cells | 0.7703 | 0.97 | 84.17 | -7.679 | 0.6008 | ~ -2.146 | 1.01 | selectively induced cytochrome c release only in Bfl-1 dependent cell lines | 1.725 | 0.1056 | 1.316 | -4.564 | 1.006 | 0.134 | 1.087 | LogEC50 (best-fit value) [3]: ~ -9.301; LogEC50 (best-fit value) [4]: -4.058; LogEC50 (best-fit value) [6]: ~ -3.991; HillSlope (best-fit value) [6]: ~ 14.29; Bottom (best-fit value) [6]: 0.1223; Top (best-fit value) [6]: ~ 0.6231; peptide concentration leading to cytochrome c release in unprimed cells [7]: > 100 µM; peptide concentration leading to cytochrome c release in unprimed cells [8]: > 100 µM
